Test results reported in US8541361B2, “Composition” (DSM IP Assets B.V., priority 2009, dated 2013).
Each block holds one substance with its values, some of them ahead of it. Square brackets hold non-standard residues; d marks the D form. * marks the point of attachment. Palmitoyl = CCCCCCCCCCCCCCCC(=O)*; Dab = NCC[C@H](N)C(=O)O

Assay: Storage stability: normalized peptide content by analytical HPLC of glycerin/water solutions in glass vials, with or without salt
Type: physicochemical
Settings: 40° C., glass vial
Description: (§1) Solutions of 127 mmol/kg H29C14—NH—CO-Dab-Val-Dab-OH in a Glycerin water mixture (˜2.3:1) containing salt concentrations of 382 mmol/kg have been prepared, distributed to 3 g per 10 ml glass vial and stored at 40° C. and 25° C. After various times, samples have been analyzed for their peptide content with analytical HPLC. The results have been normalized to the content at the preparation time to 100%.
as §1, with “119” for “127”, “Palm-Lys-Val-Lys-OH (SEQ ID NO:2)” for “H29C14—NH—CO-Dab-Val-Dab-OH”, “in” for “in a”, “one or three equivalents as indicated below” for “382 mmol/kg”, “40°” for “40° C. and 25°”
as §1, with “246” for “127”, “Palm-Lys-Val-Dab-OH (SEQ ID NO:5)” for “H29C14—NH—CO-Dab-Val-Dab-OH”, “in” for “in a”, “one or three equivalents as indicated below” for “382 mmol/kg”, “40°” for “40° C. and 25°”

normalized peptide content (3 eq. CaCl2 (382 mmol/kg), t0, 127 mmol/kg peptide in Glycerin water): 100.0%
normalized peptide content (3 eq. CaCl2, 1 Month, 127 mmol/kg peptide in Glycerin water): 92.2%
normalized peptide content (3 eq. CaCl2, 2 Month, 127 mmol/kg peptide in Glycerin water): 96.9%
normalized peptide content (3 eq. CaCl2, 3 Month, 127 mmol/kg peptide in Glycerin water): 101.1%
normalized peptide content (3 eq. CaCl2, 4 Month, 127 mmol/kg peptide in Glycerin water): 95.4%
normalized peptide content (3 eq. CaCl2, 5 Month, 127 mmol/kg peptide in Glycerin water): 89.0%
normalized peptide content (3 eq. CaCl2, 6 Month, 127 mmol/kg peptide in Glycerin water): 88.9%
normalized peptide content (3 eq. LiCl (382 mmol/kg), t0, 127 mmol/kg peptide in Glycerin water): 100.0%
normalized peptide content (3 eq. LiCl, 1 Month, 127 mmol/kg peptide in Glycerin water): 93.1%
normalized peptide content (3 eq. LiCl, 2 Month, 127 mmol/kg peptide in Glycerin water): 95.3%
normalized peptide content (3 eq. LiCl, 3 Month, 127 mmol/kg peptide in Glycerin water): 99.8%
normalized peptide content (3 eq. LiCl, 4 Month, 127 mmol/kg peptide in Glycerin water): 96.4%
normalized peptide content (3 eq. LiCl, 5 Month, 127 mmol/kg peptide in Glycerin water): 90.7%
normalized peptide content (3 eq. LiCl, 6 Month, 127 mmol/kg peptide in Glycerin water): 87.6%
normalized peptide content (3 eq. MgCl2 (382 mmol/kg), t0, 127 mmol/kg peptide in Glycerin water): 100.0%
normalized peptide content (3 eq. MgCl2, 1 Month, 127 mmol/kg peptide in Glycerin water): 93.7%
normalized peptide content (3 eq. MgCl2, 2 Month, 127 mmol/kg peptide in Glycerin water): 96.5%
normalized peptide content (3 eq. MgCl2, 3 Month, 127 mmol/kg peptide in Glycerin water): 100.0%
normalized peptide content (3 eq. MgCl2, 4 Month, 127 mmol/kg peptide in Glycerin water): 94.9%
normalized peptide content (3 eq. MgCl2, 5 Month, 127 mmol/kg peptide in Glycerin water): 89.7%
normalized peptide content (3 eq. MgCl2, 6 Month, 127 mmol/kg peptide in Glycerin water): 90.7%
normalized peptide content (3 eq. ZnCl2 (382 mmol/kg), t0, 127 mmol/kg peptide in Glycerin water): 100.0%
normalized peptide content (3 eq. ZnCl2, 1 Month, 127 mmol/kg peptide in Glycerin water): 88.5%
normalized peptide content (3 eq. ZnCl2, 2 Month, 127 mmol/kg peptide in Glycerin water): 93.5%
normalized peptide content (3 eq. ZnCl2, 3 Month, 127 mmol/kg peptide in Glycerin water): 98.7%
normalized peptide content (3 eq. ZnCl2, 4 Month, 127 mmol/kg peptide in Glycerin water): 96.5%
normalized peptide content (3 eq. ZnCl2, 5 Month, 127 mmol/kg peptide in Glycerin water): 88.1%
normalized peptide content (3 eq. ZnCl2, 6 Month, 127 mmol/kg peptide in Glycerin water): 92.3%
normalized peptide content (No salt, 1 Month, 127 mmol/kg peptide in Glycerin water): 106.2%
normalized peptide content (No salt, 2 Month, 127 mmol/kg peptide in Glycerin water): 91.7%
normalized peptide content (No salt, 3 Month, 127 mmol/kg peptide in Glycerin water): 18.9%
normalized peptide content (No salt, 4 Month, 127 mmol/kg peptide in Glycerin water): 11.5%
normalized peptide content (No salt, 5 Month, 127 mmol/kg peptide in Glycerin water): 10.1%
normalized peptide content (No salt, t0, 127 mmol/kg peptide in Glycerin water (~2.3:1)): 100.0%
Substance: H29C14—NH—CO-Dab-Val-Dab-OH

Substance: Palm-Lys-Val-Dab-OH (Palmitoyl-Lys-Val-[Dab]-OH; SMILES CCCCCCCCCCCCCCCC(=O)N[C@@H](CCCCN)C(=O)N[C@H](C(=O)N[C@@H](CCN)C(=O)O)C(C)C) [peptide substituted with a lipophilic moiety; Palm means palmitoyl and Dab means 2,4-diaminobutyroyl]
normalized peptide content (1 eq MgCl2, 1 Month, 246 mmol/kg peptide in Glycerin water): 71.7%
normalized peptide content (1 eq MgCl2, t0, 246 mmol/kg peptide in Glycerin water): 100.0%
normalized peptide content (3 eq LiCl, 1 Month, 246 mmol/kg peptide in Glycerin water): 75.9%
normalized peptide content (3 eq LiCl, t0, 246 mmol/kg peptide in Glycerin water): 100.0%
normalized peptide content (3 eq MgCl2, 1 Month, 246 mmol/kg peptide in Glycerin water): 70.5%
normalized peptide content (3 eq MgCl2, t0, 246 mmol/kg peptide in Glycerin water): 100.0%
normalized peptide content (3 eq NaCl, 1 Month, 246 mmol/kg peptide in Glycerin water): 75.7%
normalized peptide content (3 eq NaCl, t0, 246 mmol/kg peptide in Glycerin water): 100.0%
normalized peptide content (No salt, 1 Month, 246 mmol/kg peptide in Glycerin water): 44.2%
normalized peptide content (No salt, t0, 246 mmol/kg peptide in Glycerin water (~2.3:1)): 100.0%

Substance: Palm-Lys-Val-Lys-OH (Palmitoyl-Lys-Val-Lys-OH; SMILES CCCCCCCCCCCCCCCC(=O)N[C@@H](CCCCN)C(=O)N[C@H](C(=O)N[C@@H](CCCCN)C(=O)O)C(C)C) [peptide substituted with a lipophilic moiety; Palm means palmitoyl]
normalized peptide content (1 eq MgCl2, 1 Month, 119 mmol/kg peptide in Glycerin water): 81.4%
normalized peptide content (1 eq MgCl2, t0, 119 mmol/kg peptide in Glycerin water): 100.0%
normalized peptide content (3 eq LiCl, 1 Month, 119 mmol/kg peptide in Glycerin water): 83.6%
normalized peptide content (3 eq LiCl, t0, 119 mmol/kg peptide in Glycerin water): 100.0%
normalized peptide content (3 eq MgCl2, 1 Month, 119 mmol/kg peptide in Glycerin water): 87.4%
normalized peptide content (3 eq MgCl2, t0, 119 mmol/kg peptide in Glycerin water): 100.0%
normalized peptide content (3 eq NaCl, 1 Month, 119 mmol/kg peptide in Glycerin water): 82.0%
normalized peptide content (3 eq NaCl, t0, 119 mmol/kg peptide in Glycerin water): 100.0%
normalized peptide content (No salt, 1 Month, 119 mmol/kg peptide in Glycerin water): 76.4%
normalized peptide content (No salt, t0, 119 mmol/kg peptide in Glycerin water (~2.3:1)): 100.0%
